Reference: ChEMBL document CHEMBL5338723, “Emerging Target-Directed Approaches for the Treatment and Diagnosis of Microbial Infections” (J Med Chem, 2023)
Converted amounts (≈) assume the structure as drawn.

Key:
Escherichia coli [1] = test: Antibacterial activity against Escherichia coli MG1655 expressing CTX-M-1 assessed as inhibition of bacterial growth; type: functional
Escherichia coli [2] = test: Antibacterial activity against Escherichia coli MG1655 expressing CMY-2 assessed as inhibition of bacterial growth; type: functional
Escherichia coli [3] = test: Antibacterial activity against Escherichia coli MG1655 expressing NDM-1 assessed as inhibition of bacterial growth; type: functional
Escherichia coli [4] = test: Antibacterial activity against Escherichia coli UTI89 expressing CTX-M-1 assessed as inhibition of bacterial growth; type: functional
Escherichia coli [5] = test: Antibacterial activity against Escherichia coli UTI89 expressing CMY-2 assessed as inhibition of bacterial growth; type: functional
Escherichia coli [6] = test: Antibacterial activity against Escherichia coli UTI89 expressing NDM-1 assessed as inhibition of bacterial growth; type: functional
Escherichia coli [7] = test: Antibacterial activity against Escherichia coli MG1655 assessed as inhibition of bacterial growth; type: functional
Escherichia coli [8] = test: Antibacterial activity against Escherichia coli UTI89 assessed as inhibition of bacterial growth; type: functional
Escherichia coli [9] = test: Antimicrobial activity against Escherichia coli MG1655 expressing TEM-1 assessed as microbial growth inhibition in the presence of bathocuproinedisulfonic acid; type: functional
Escherichia coli [10] = test: Antimicrobial activity against Escherichia coli MG1655 expressing CTX-M-1 assessed as microbial growth inhibition in the presence of bathocuproinedisulfonic acid; type: functional
Escherichia coli [11] = test: Antimicrobial activity against Escherichia coli MG1655 expressing CMY-2 assessed as microbial growth inhibition in the presence of bathocuproinedisulfonic acid; type: functional
Escherichia coli [12] = test: Antimicrobial activity against Escherichia coli MG1655 expressing NDM-1 assessed as microbial growth inhibition in the presence of bathocuproinedisulfonic acid; type: functional
Escherichia coli [13] = test: Antimicrobial activity against Escherichia coli UTI89 expressing TEM-1 assessed as microbial growth inhibition in the presence of bathocuproinedisulfonic acid; type: functional
Escherichia coli [14] = test: Antimicrobial activity against Escherichia coli UTI89 expressing CTX-M-1 assessed as microbial growth inhibition in the presence of bathocuproinedisulfonic acid; type: functional
Escherichia coli [15] = test: Antimicrobial activity against Escherichia coli UTI89 expressing CMY-2 assessed as microbial growth inhibition in the presence of bathocuproinedisulfonic acid; type: functional
Escherichia coli [16] = test: Antimicrobial activity against Escherichia coli UTI89 expressing NDM-1 assessed as microbial growth inhibition in the presence of bathocuproinedisulfonic acid; type: functional
[17] = Cytotoxicity against human CCD 19Lu cells assessed as lethal dose by CellTox Green cytotoxicity assay; type: toxicity, cell-based; conditions: read-out: LD50 (the source's name)
[18] = Cytotoxicity against human HepG2 cells assessed as lethal dose by CellTox Green cytotoxicity assay; type: toxicity, cell-based; conditions: read-out: LD50 (the source's name)
Escherichia coli [19] = test: Antimicrobial activity against Escherichia coli 25922 assessed as microbial growth inhibition; type: functional
Escherichia coli [20] = test: Antimicrobial activity against Escherichia coli BAA-196 assessed as microbial growth inhibition; type: functional
Escherichia coli [21] = test: Antimicrobial activity against Escherichia coli DH5alpha assessed as microbial growth inhibition; type: functional
Salmonella typhimurium [22] = test: Antimicrobial activity against Salmonella enterica subsp. enterica serovar Typhimurium 19585 assessed as microbial growth inhibition; type: functional
Salmonella typhimurium [23] = test: Antimicrobial activity against Salmonella enterica subsp. enterica serovar Typhimurium 29630 assessed as microbial growth inhibition; type: functional
Salmonella typhimurium [24] = test: Antimicrobial activity against Salmonella enterica subsp. enterica serovar Typhimurium BAA-190 assessed as microbial growth inhibition; type: functional
Salmonella typhi [25] = test: Antimicrobial activity against Salmonella enterica subsp. enterica serovar Typhi 19214 assessed as microbial growth inhibition; type: functional
Salmonella typhi [26] = test: Antimicrobial activity against Salmonella enterica subsp. enterica serovar Typhi 700931 assessed as microbial growth inhibition; type: functional
Shigella flexneri [27] = test: Antimicrobial activity against Shigella flexneri 2457T assessed as microbial growth inhibition; type: functional
Shigella flexneri [28] = test: Antimicrobial activity against Shigella flexneri M90T assessed as microbial growth inhibition; type: functional
Proteus mirabilis = test: Antimicrobial activity against Proteus mirabilis 29906 assessed as microbial growth inhibition; type: functional

O=C(Cc1ccccc1)N[C@@H]1C(=O)N2C(C(=O)O)=C(CSc3ccccn3)CS[C@H]12
MIC (Escherichia coli [1]): 17.5 µM (≈ 7.73 µg/mL)
MIC (Escherichia coli [2]): 17.5 µM (≈ 7.73 µg/mL)
MIC (Escherichia coli [3]): 17.5 µM (≈ 7.73 µg/mL)
MIC (Escherichia coli [4]): 17.5 µM (≈ 7.73 µg/mL)
MIC (Escherichia coli [5]): 17.5 µM (≈ 7.73 µg/mL)
MIC (Escherichia coli [6]): 17.5 µM (≈ 7.73 µg/mL)
MIC (Escherichia coli [7]): 35 µM (≈ 15.5 µg/mL)
MIC (Escherichia coli [8]): 35 µM (≈ 15.5 µg/mL)
MIC (Escherichia coli [9]): > 140 µM
MIC (Escherichia coli [10]): > 140 µM
MIC (Escherichia coli [11]): > 140 µM
MIC (Escherichia coli [12]): > 140 µM
MIC (Escherichia coli [13]): > 140 µM
MIC (Escherichia coli [14]): > 140 µM
MIC (Escherichia coli [15]): > 140 µM
MIC (Escherichia coli [16]): > 140 µM
CC50 [17]: > 500 µM
CC50 [18]: > 500 µM

H-GGAPATSANAAGAAAIVGALAGIPGGPLGVVVGAVSAGLTTAIGSTVGSGSASSSAGGGS-OH
MIC (Escherichia coli [19]): 1.1 µM
MIC (Escherichia coli [20]): 1.1 µM
MIC (Escherichia coli [21]): 1.1 µM
MIC (Salmonella typhimurium [22]): 1.1 µM
MIC (Salmonella typhimurium [23]): 1.1 µM
MIC (Salmonella typhimurium [24]): 1.1 µM
MIC (Salmonella typhi [25]): 1.1 µM
MIC (Salmonella typhi [26]): 1.1 µM
MIC (Shigella flexneri [27]): 1.1 µM
MIC (Shigella flexneri [28]): 1.1 µM
MIC (Proteus mirabilis): 1.1 µM
